These results are taken from patent publication US20230250096A1, “SUBSTITUTED PHENYL-1H-PYRROLO[2,3-c] PYRIDINE DERIVATIVES” (Janssen Pharmaceutica NV, priority 2021, published 2023).

The target of this assay is T1, menin/MLL (terbium chelate-labeled menin, FITC-MBM1 peptide) (Homo sapiens, UniProt O00255, T541A).
T1 construct: Menin (a.a 1-610-6xhis tag, 2.3 mg/mL in 20 mM Hepes)
T1 sequence (O00255 with tags, fused parts or gaps T541A): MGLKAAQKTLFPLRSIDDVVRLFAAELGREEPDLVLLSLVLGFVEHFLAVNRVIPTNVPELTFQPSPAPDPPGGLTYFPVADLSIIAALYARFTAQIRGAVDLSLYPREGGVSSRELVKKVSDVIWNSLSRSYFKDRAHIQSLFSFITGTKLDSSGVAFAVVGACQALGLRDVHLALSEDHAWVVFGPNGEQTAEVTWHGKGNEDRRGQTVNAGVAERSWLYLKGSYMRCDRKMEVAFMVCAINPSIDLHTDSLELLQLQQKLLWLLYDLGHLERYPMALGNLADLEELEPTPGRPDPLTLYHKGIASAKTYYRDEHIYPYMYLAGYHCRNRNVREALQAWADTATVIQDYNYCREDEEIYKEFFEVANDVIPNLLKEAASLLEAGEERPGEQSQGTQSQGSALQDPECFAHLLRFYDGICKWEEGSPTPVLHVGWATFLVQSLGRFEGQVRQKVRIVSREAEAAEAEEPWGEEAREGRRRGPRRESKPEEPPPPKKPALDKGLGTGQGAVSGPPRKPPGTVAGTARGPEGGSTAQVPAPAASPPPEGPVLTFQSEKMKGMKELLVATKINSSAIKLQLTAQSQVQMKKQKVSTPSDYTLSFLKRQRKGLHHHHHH
Put plainly: Menin/MLL homogenous time-resolved fluorescence (HTRF) assay. In kind it is binding. Conditions: 30 min incubation. The essentials: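 Competition binding read by time-resolved FRET (FITC 520 nm over terbium 490 nm) after compound meets labeled menin 1-610-His […] for 30 min, then FITC-MBM1 (75 nM) for 15 min, ambient temperature, 0.5% DMSO. Eleven-point four-fold dilutions, usually starting at 10 μM, fitted to four-parameter curves for IC50.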
As to `CC(=O)N1CCC(CCN2CC[C@@H](Cc3cn(-c4ccc(F)cc4C(=O)N(C)C(C)C)c4cncc(C)c34)C2)CC1` [Compound 189], the IC50 is 0.544 nM.
With `COCCN(C)CCCC(C(C)C)N1CC[C@@H](Cc2cn(-c3ccc(F)cc3C(=O)N(C)C(C)C)c3cncc(Cl)c23)C1` (stereo partly shown) [Compound 3] the figure was 0.026 nM; with `Cc1cncc2c1c(C[C@H]1CCN([C@H](C)C3CCOCC3)C1)cn2-c1ccc(F)cc1[S@](=N)(=O)C(C)C` (single isomer, unassigned) [Compound 181a], 0.066 nM.
`CC(=O)NC1CCC(N2CC[C@@H](Cc3cn(-c4ccc(F)cc4C(=O)N(C)C(C)C)c4cncc(C)c34)C2)CC1` (stereo partly shown) [Compound 201] yielded an IC50 of 0.063 nM.
The value for `CC(=O)N1CCC(CN2CC[C@@H](Cc3cn(-c4ccc(F)cc4C(=O)N4CCC5CC54)c4cncc(C)c34)C2)CC1` (single isomer, unassigned) [Compound 311a] was 0.037 nM; that for `Cc1cncc2c1c(CC1CN(CC3CCNC(=O)CC3)C1)cn2-c1ccc(F)cc1C(=O)N(C)C(C)C` (stereo not shown) [Compound 104] was 0.147 nM; that for `Cc1cncc2c1c(CC1CCN(CC3CCC(=O)N(C)CC3)C1)cn2-c1ccc(F)cc1C(=O)N(C)C(C)C` (single isomer, unassigned) [Compound 184b] was 0.065 nM.
In the case of `COC[C@H](C1CCCCO1)N1CC[C@@H](Cc2cn(-c3ccc(F)cc3C(=O)N(C)C(C)C)c3cncc(C)c23)C1` (single isomer, unassigned) [Compound 165b], the IC50 came to 0.07 nM.
For the compound `Cc1cncc2c1c(C[C@@H]1CCN(C[C@@H]3CCOC3)C1)cn2-c1ccc(F)cc1C(=O)N(C)C(C)C` (single isomer, unassigned) [Compound 190b], half-maximal inhibition (IC50) was put at 0.063 nM.
With `Cc1cncc2c1c(C[C@@H]1CCN(C[C@H]3CCNC(=O)CC3)C1)cn2-c1ccc(F)cc1C(=O)N1[C@H](C)CC[C@H]1C` (single isomer, unassigned) [Compound 352a] the figure was 0.102 nM.
`CC(=O)N1CC2CC(C1)C2N1CC[C@@H](Cc2cn(-c3ccc(F)cc3C(=O)N(C)C(C)C)c3cncc(C)c23)C1` (stereo partly shown) [Compound 209] came in with an IC50 of 0.202 nM. This IC50 is about 2-fold higher than that of the compound before.
With `CC(=O)NC1CCC(N2CC[C@@H](Cc3cn(-c4ccc(F)cc4C(=O)N(C)C(C)C)c4cncc(C)c34)C2)CC1` (stereo partly shown) [Compound 200] the figure was 0.909 nM.
With `CC(=O)N1CCC(N2CC[C@H](Cc3cn(-c4ccc(F)cc4C(=O)N(C)C(C)C)c4cncc(C)c34)C2)C(C)C1` (single isomer, unassigned) [Compound 137a] the figure was 0.063 nM; with `COCC(=O)N1CCC(CN2CC[C@@H](Cc3cn(-c4ccc(F)cc4C(=O)N(C)C(C)C)c4cncc(C)c34)C2)CC1` (single isomer, unassigned) [Compound 136], approximately 0.094 nM.
As to `Cc1cncc2c1c(C[C@@H]1CCN(CC3CCNC(=O)C3)C1)cn2-c1ccc(F)cc1C(=O)N(C)C(C)C` (mixture of isomers) [Compound 212], the IC50 was found to be 0.115 nM. That is a sub-nanomolar value.
With `Cc1cncc2c1c(C[C@@H]1CCN(C[C@H]3CCCCN3)C1)cn2-c1ccc(F)cc1C(=O)N(C)C(C)C` [Compound 199] the figure was 0.327 nM; with `CC(=O)N1CCC(N2CC[C@H](Cc3cn(-c4ccc(F)cc4C(=O)N(C)C(C)C)c4cncc(C)c34)C2)CC1` (single isomer, unassigned) [Compound 81], 0.425 nM.
With `Cc1cncc2c1c(C[C@@H]1CCN(CC3CCOCC3)C1)cn2-c1ccc(F)cc1S(=N)(=O)C(C)C` (mixture of isomers) [Compound 78] the figure was 0.299 nM; with `Cc1cncc2c1c(CC1CN(CC3CCOCC3)C1)cn2-c1ccc(F)cc1C(=O)N1CCC2CC21` (stereo not shown) [Compound 262], 0.018 nM.
With `COCCN(C)CCCC(C(C)C)N1CCC(Cc2cn(-c3ccc(F)cc3C(=O)N(C)C(C)C)c3cncc(F)c23)C1` (stereo not shown) [Compound 6] the figure was 0.288 nM.
With `CC(=O)N1C[C@@H]2CN(CCC[C@H](C(C)C)N3CC[C@H](Cc4cn(-c5ccc(F)cc5C(=O)N(C)C(C)C)c5cncc(Cl)c45)C3)C[C@H]2C1` (single isomer, unassigned) [Compound 19a], it took 0.032 nM to reach half-maximal inhibition (IC50).
The value for `CNC(=O)[C@H]1CC[C@H](CN2CC(Cc3cn(-c4ccc(F)cc4C(=O)N(C)C(C)C)c4cncc(C)c34)C2)CC1` [Compound 74] was 0.034 nM.
Consider `CNC(=O)N1CCC(CN2CCC(Cc3cn(-c4ccc(F)cc4C(=O)N(C)C(C)C)c4cncc(C)c34)CC2)CC1` [Compound 202], for which the IC50 was 0.081 nM.
The value for `CC(=O)N1CCC(CN2CC[C@@H](Cc3cn(-c4ccc(F)cc4C(=O)N(CC(C)O)C(C)C)c4cncc(C)c34)C2)CC1` (stereo partly shown) [Compound 320] was 0.078 nM; that for `CC(=O)N1CCN(CCCC(C(C)C)N2CC[C@@H](Cc3cn(-c4ccc(F)cc4C(=O)N(C)C(C)C)c4cncc(C)c34)C2)CC1` (mixture of isomers) [Compound 8] was 0.365 nM.
With `CNC(=O)[C@H]1CC[C@H](CN2CC([C@H](C)c3cn(-c4ccc(F)cc4C(=O)N(C)C(C)C)c4cncc(C)c34)C2)CC1` (single isomer, unassigned) [Compound 164b] the figure was 0.025 nM; with `Cc1cncc2c1c(CC1CN(C[C@@H]3CCOC3)C1)cn2-c1ccc(F)cc1C(=O)N(C)C(C)C` (single isomer, unassigned) [Compound 191b], 0.071 nM.
`COCCN(C)CCCC(C(C)C)N1CC[C@H](Cc2cn(-c3ccc(F)cc3C(=O)N(C)C(C)C)c3cncc(Cl)c23)C1` (stereo partly shown) [Compound 4] displayed an IC50 of 0.016 nM.
With `Cc1cncc2c1c(C[C@@H]1CCN(C[C@@H]3CCNC(=O)CC3)C1)cn2-c1ccc(F)cc1C(=O)N1[C@H](C)CC[C@H]1C` (single isomer, unassigned) [Compound 352b] the figure was 0.247 nM; with `Cc1cncc2c1c(C[C@@H]1CCN(CC3CCC(O)CC3)C1)cn2-c1ccc(F)cc1C(=O)N(C)C(C)C` (single isomer, unassigned) [Compound 205b], 0.035 nM; with `COCCN(C)CCC[C@@H](C(C)C)N1CC[C@H](Cc2cn(-c3ccc(F)cc3C(=O)N(C)C(C)C)c3cncc(Cl)c23)C1` (single isomer, unassigned) [Compound 4b], 0.094 nM.
With `COCCN(C)CCCC(C(C)C)N1CC[C@H](Cc2cn(-c3ccc(F)cc3C(=O)N(C)C(C)C)c3cncc(C)c23)C1` (single isomer, unassigned) [Compound 2] the figure was 0.049 nM; with `CC(=O)N1CC2CC(C1)C2N1CC[C@H](Cc2cn(-c3ccc(F)cc3C(=O)N(C)C(C)C)c3cncc(C)c23)C1` (stereo partly shown) [Compound 208], 0.147 nM; with `Cc1cncc2c1c(C[C@@H]1CCN(C[C@H]3CCOC3)C1)cn2-c1ccc(F)cc1C(=O)N(C)C(C)C` (single isomer, unassigned) [Compound 190a], 0.101 nM.
The value for `CC(=O)N1CCN(CCCC(C(C)C)N2CCC(Cc3cn(-c4ccc(F)cc4C(=O)N(C)C(C)C)c4cncc(C)c34)C2)CC1` (single isomer, unassigned) [Compound 9a] was 0.016 nM; that for `Cc1cncc2c1c(CC1CN(CC3CCC(O)CC3)C1)cn2-c1ccc(F)cc1C(=O)N(C)C(C)C` (stereo not shown) [Compound 144] was 0.072 nM.
With `CNC(=O)[C@H]1CC[C@@H](CN2CC[C@@H](Cc3cn(-c4ccc(F)cc4C(=O)N(C)C(C)C)c4cncc(C)c34)C2)CC1` [Compound 185], the IC50 is 0.097 nM.
With `CNC(=O)c1cncc(N2CCC(N3CC(Cc4cn(-c5ccc(F)cc5C(=O)N(C)C(C)C)c5cncc(C)c45)C3)CC2)n1` [Compound 75] the figure was 0.059 nM.
The value for `CC(=O)N1CCC(CN2CC[C@@H](Cc3cn(-c4ccc(F)cc4C(=O)N4CCC[C@@H]4C)c4cncc(C)c34)C2)CC1` [Compound 319] was 0.293 nM.
Compound `CN=S(=O)(c1cc(F)ccc1-n1cc(CC2CCN(CC3CCOCC3)C2)c2c(C)cncc21)C(C)C` (single isomer, unassigned) [Compound 77b] returned an IC50 of 0.07 nM.
In turn, `Cc1cncc2c1c(C[C@@H]1CCN(C[C@H]3CC[C@@H](C(=O)N4CCC4)CC3)C1)cn2-c1ccc(F)cc1C(=O)N(C)C(C)C` [Compound 178] yielded an IC50 of 0.055 nM.
With `Cc1cncc2c1c(CC1CN(CC3CCOCC3)C1)cn2-c1ccc(F)cc1C(=O)N(CCO)C(C)C` [Compound 281] the figure was 0.058 nM; with `Cc1cncc2c1c(C[C@@H]1CCN(CC3CCN(C(=O)C(C)C)CC3)C1)cn2-c1ccc(F)cc1C(=O)N1CCC[C@H]1CO` [Compound 328], 0.101 nM.
With `CN=[S@](=O)(c1cc(F)ccc1-n1cc(C[C@@H]2CCN(CC3CCN(C(C)=O)CC3)C2)c2c(C)cncc21)C(C)C` (single isomer, unassigned) [Compound 128a] the figure was 0.151 nM; with `CON(C)C(=O)N1CCC(CN2CCC(Cc3cn(-c4ccc(F)cc4C(=O)N(C)C(C)C)c4cncc(C)c34)CC2)CC1` [Compound 203], 0.069 nM.
With `COC(=O)[C@H]1CC[C@@H](CN2CC[C@@H](Cc3cn(-c4ccc(F)cc4C(=O)N(C)C(C)C)c4cncc(C)c34)C2)CC1` [Compound 153] the figure was 0.077 nM.
